Test results as given in US10786475B2, “Method for preventing, treating, or improving fatty liver by administering effective amounts of azelaic acid to a subject” (Korea University Research and Business Foundation, priority 2018, dated 2020).

Columns and labels:
Olfr544 = assay: p-CREB/CREB western blotting in Hepa1c1c-7 cells, normal and Olfr544 knockdown; assay type: cell-based, mouse
Excerpt: To more clearly confirm whether an AzA acts as an Olfr544 ligand, an Olfr544 knockdown cell line was constructed using a vector including shRNA, and protein expression levels of normal cells and knockdown cells were compared by performing an experiment as follows. To construct an Olfr544 knockdown cell line, particularly, an oligonucleotide (top strand [SEQ ID NO: 1]: 5′-[…]-ACAGTGAG-3′) encoding an Olfr544-targeted shRNA hairpin sequence or an oligonucleotide (top strand [SEQ ID NO: 2]: 5′-[…]-3′) encoding non-targeting scrambled shRNA hairpins were inserted into an shRNA cloning site of a pENTR/U6 vector using a BLOCK-iT U6 RNAi entry vector kit (Invitrogen). Subsequently, Hepa1c1c-7 or 3T3-L1 cells were seeded on a 6-well plate and transfected with 2.5 μg of Olfr544 shRNA or scrambled shRNA using 10 μL Lipofectamine 2000 (Invitrogen) for 48 hours, thereby constructing an Olfr544 knockdown cell line. […]
To confirm whether an Olfr544 protein was expressed, protein fractions (cell membrane protein, cytosol protein) and total proteins (whole protein extract), which were extracted by the method of Example 2-3, were quantified by a Bradford method. […] The expression level of each gene was standardized using β-actin or GAPDH expression, and the comparison of the contents of protein bands of western blots was quantified and digitized using software (Gel-Pro Analyzer 4.0). […]

[1] = test system: 3T3-L1 cells stimulated by LPS; assay: GPCR 10-pathway reporter assay in LPS-induced 3T3-L1 cells; assay type: cell-based, mouse; conditions: 100 ng/mL LPS 1 hour, 50 μM AzA 6 hours
Method: 3T3-L1 cells, mouse pre-adipose cells were purchased from the Korean Cell Line Bank (Seoul, Korea). The 3T3-L1 cells were cultured in Dulbecco's modified Eagle's medium (DMEM) supplemented with 10% heat-inactivated bovine calf serum (Gibco, Grand Island, N.Y., USA) and 1% PEST under 5% CO2 at 37° C. The 3T3-L1 pre-adipose cells were seeded on a 6-well plate at 1×10^6 cells/well to differentiate into adipose cells, and cultured to a density of 100%. After 2 days, the cultured 3T3-L1 pre-adipose cells were incubated in DMEM containing 10% fetal bovine serum (FBS) and an MDI solution (0.5 mM IBMX, 0.5 μM dexamethasone and 10 μg/mL insulin) for 3 days. Subsequently, the treated cells were cultured in DMEM containing 10% FBS and 10 μg/mL insulin, and the formation of lipid droplets in cells and the degree thereof were confirmed, and based on this, the differentiation into adipose cells was confirmed.
3T3-L1 adipose cells were seeded on a 96 well-plate at 1×10^4 cells/well and cultured for 24 hours, and transfected with a construct including a transcription factor promoter and a luciferase for 8 hours. […]
To confirm a mechanism of an anti-inflammatory effect of an AzA, 10 transcription factors for signal transduction of GPCR were analyzed by the same method as described in Example 7-3.

For `O=C(O)CCCCCCCC(=O)O` [AzA, nonanedioic acid], the “increase in p-CREB/CREB ratio” value (Olfr544; Hepa1c1c-7 cells with Olfr544 knockdown by shRNA transfection) was “not observed”, the p-CREB/CREB ratio (Olfr544; Hepa1c1c-7 cells, AzA-treated group) was “significantly increased” and the “FOXO transcription factor activity (PI-3 Kinase/AKT pathway)” value [1] was “significant activity”.
